Reference: publication PMC12305494, “Discovery of PXR Antagonist MI891 and PXR Degrader MI1013 and Their Roles in Hepatic Gene Regulation” (Journal of Medicinal Chemistry, 2025)

Columns and labels:
PXR = target: T1, PXR (Homo sapiens, UniProt O75469); experiment: PXR-responsive CYP3A4 promoter luciferase reporter assay in HepG2, inverse agonist mode (basal activity); format: cell-based; parameters: expressed in transfected cells; host or cells: HepG2; details: for PXR inverse agonism: decrease of basal activity in %: tested at 10 μM, DMSO (0.1%) = 100% basal activity
T1 sequence (O75469 1-434): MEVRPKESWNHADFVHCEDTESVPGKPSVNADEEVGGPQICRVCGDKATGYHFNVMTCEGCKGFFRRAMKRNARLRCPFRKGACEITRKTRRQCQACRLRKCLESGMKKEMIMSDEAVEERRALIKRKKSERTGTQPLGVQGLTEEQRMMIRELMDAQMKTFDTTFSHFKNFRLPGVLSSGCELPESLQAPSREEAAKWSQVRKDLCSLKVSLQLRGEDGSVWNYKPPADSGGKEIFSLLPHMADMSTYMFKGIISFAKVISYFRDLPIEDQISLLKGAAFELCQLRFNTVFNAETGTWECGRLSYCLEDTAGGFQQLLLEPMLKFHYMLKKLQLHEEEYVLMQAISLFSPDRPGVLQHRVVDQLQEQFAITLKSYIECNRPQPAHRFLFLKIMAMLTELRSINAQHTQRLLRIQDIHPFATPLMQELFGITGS
Protocol: Rhesus monkey, mouse, and rat PXR expression vectors (100 ng/well each) were also obtained from GenScript. […] Carlberg (University of Kuopio, Kuopio, Finland).
The cells were cultured in DMEM medium (Merck) supplemented with 10% fetal bovine serum.

[1] = Plasma stability, mouse plasma; format: in vitro ADME; details: up to 120 min, read-out: Plasma stability, t1/2 (min), mouse
Protocol: The protocols and reagents for the plasma protein binding assay and metabolic stability testing in human and mouse liver microsomes are detailed in our previous report. Briefly, metabolic stability of compounds was assessed at a single concentration (5 μM) at t = 0, 10, 30, and at t = 45 min. The stability of compounds was tested in human and mouse microsomes (ThermoFisher Scientific). Compounds were tested in triplicate with or without NADPH wells as a negative control for cytochrome P450 metabolism. In addition to hepatic metabolism, compounds were also subjected to degradation/modification by enzymes in human (VWR International) and mouse (Biomedica, CZ) plasma for t = 0, 30, 60, and at t = 120 min. Each assay included a substrate with known activity as a positive control. Time points were analyzed by LC/MS/MS. The peak area for the parent compound is compared to the time zero sample in order to assess the amount of remaining compound.

LXRα = target: T2, LXRα (Homo sapiens, UniProt Q13133); experiment: LXRα luciferase reporter assay, agonistic and antagonistic setups; format: cell-based; details: prototype ligand GW3965
T2 construct: expressed in transfected cells
T2 sequence (Q13133 209-447 limits assumed): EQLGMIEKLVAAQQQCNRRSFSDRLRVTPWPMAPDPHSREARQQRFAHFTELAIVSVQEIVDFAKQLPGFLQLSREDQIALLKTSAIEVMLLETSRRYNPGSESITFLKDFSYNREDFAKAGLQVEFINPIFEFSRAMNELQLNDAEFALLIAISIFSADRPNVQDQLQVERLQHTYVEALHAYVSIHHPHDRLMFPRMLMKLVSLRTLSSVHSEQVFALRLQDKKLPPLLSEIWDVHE
Protocol: For the farnesoid X receptor (FXR) luciferase gene reporter assay, the full-length expression vector was paired with pFXRE-luc luciferase construct. The p1A1-luc construct was used in the aryl hydrocarbon receptor (AhR) assays with pRL-TK for normalization. Gal4-LXR-α/β, and Gal4-PPAR-γ constructs were used with the pGAL4 UAS-luc construct. For the VDR assay, expression vector pSG5-hVDR together with pVDRE-luc constructs was used. Firefly and Renilla luciferase activities were analyzed using a Dual reporter assay (Promega). For the nuclear receptor assays, prototype ligands were used at the following concentrations: Calcitriol for VDR (100 nM), GW3965 for LXRα and LXRβ (10 μM), 6-OCA for FXR (1 μM), fenofibrate for PPARα (10 μM), estradiol for ERα and β (10 μM), rosiglitazone for PPARγ (10 μM), 3-MC for AhR (5 μM), and TCPOBOP for mCAR (10 μM). Detailed descriptions and protocols are detailed in our recent publication. ,

## NC(=O)c1cc(Cn2cc(-c3c(-c4ccc(Cl)cc4)nc4c(F)cc(F)cn34)nn2)ccc1Cl [Compound 11, 2-Chloro-5-((4-(2-(4-chlorophenyl)-6,8-difluoroimidazo[1,2-a]pyridin-3-yl)-1H-1,2,3-triazol-1-yl)methyl)-benzamide]
PXR; HepG2, at 10 μM, read-out: maximal inhibition (inverse agonism)
  inhibition at 10 µM: 68.8 ± 5.5%
PXR; compound alone, HepG2, read-out: IC50, inverse agonistic activity
  IC50: 6.1 µM
PXR
  PXR inverse agonism: decrease of basal activity in %: (-68.84±5.53) %
PXR; listed as 11 (MI891)
  PXR inverse agonism: decrease of basal activity in %: –68.84 ± 5.53%
[1]
  half-life: > 120 min
LXRα
  agonistic or antagonistic activity on LXRα: no significant agonistic or antagonistic activities
